One assay deals with T1, hTGR5 (Homo sapiens, UniProt Q8TDU6).
T1 construct: expressed in transfected cells; host or cells: HEK293 cells, transiently co-transfected with the pCRE TA-Luciferase reporter
T1 sequence (Q8TDU6 1-330): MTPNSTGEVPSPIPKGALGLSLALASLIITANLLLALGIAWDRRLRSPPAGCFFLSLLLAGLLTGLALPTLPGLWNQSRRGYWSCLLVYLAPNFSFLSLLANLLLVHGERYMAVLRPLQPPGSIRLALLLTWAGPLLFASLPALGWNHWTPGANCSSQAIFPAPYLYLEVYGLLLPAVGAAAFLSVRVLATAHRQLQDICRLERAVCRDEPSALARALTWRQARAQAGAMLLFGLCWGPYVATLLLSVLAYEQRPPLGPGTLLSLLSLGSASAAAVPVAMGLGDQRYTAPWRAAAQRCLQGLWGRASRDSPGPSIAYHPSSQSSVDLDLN
The assay can be described thus: TGR5/CRE Luciferase Assay (hTGR5). Conditions: for EC50: HEK 293 cells co-transfected with pCMV tag4b-TGR5h and pCRE TA-Luciferase, overnight incubation; for hTGR5 % trans: percentage of the 10 μM LCA value, HEK 293 cells transfected with hTGR5. The class given is cell-based. As for the experimental part: (§1) TGR5/CRE Luciferase Assay
(§2) In the following Tables TGR5 activation by compounds of the invention and subsequent increase in intracellular cAMP were evaluated using a luciferase reporter gene assay. Human embryonic kidney (HEK) 293 cells were transiently co-transfected with pCMV tag4b-TGR5 h (to follow hTGR5 activation) or pCMV AC6-TGR5m (to follow mTGR5 activation) expression plasmids and the pCRE TA-Luciferase reporter plasmid using the JET PEI reagent (Polyplus transfection). Transfected cells were seeded in 96-well plates and incubated overnight with the test compounds at increasing concentrations tested in duplicate. Lithocolic acid (LCA) at 10 μM was used as a positive reference compound. The cAMP-dependent luciferase expression was followed using the BrightGlo reagent according to the manufacturer (Promega) instructions. Luminescence was read with a Mithras plate reader (Berthold) or a Victor3™ V1420 (Perkin Elmer). […] Concentration-response curves were fitted by a nonlinear regression analysis to a 4 parameter logistic equation

The target of another assay is T2, mTGR5 (Mus musculus, UniProt Q80SS6).
T2 construct: expressed in transfected cells; host or cells: HEK293 cells, transiently co-transfected with the pCRE TA-Luciferase reporter
T2 sequence (Q80SS6 1-329): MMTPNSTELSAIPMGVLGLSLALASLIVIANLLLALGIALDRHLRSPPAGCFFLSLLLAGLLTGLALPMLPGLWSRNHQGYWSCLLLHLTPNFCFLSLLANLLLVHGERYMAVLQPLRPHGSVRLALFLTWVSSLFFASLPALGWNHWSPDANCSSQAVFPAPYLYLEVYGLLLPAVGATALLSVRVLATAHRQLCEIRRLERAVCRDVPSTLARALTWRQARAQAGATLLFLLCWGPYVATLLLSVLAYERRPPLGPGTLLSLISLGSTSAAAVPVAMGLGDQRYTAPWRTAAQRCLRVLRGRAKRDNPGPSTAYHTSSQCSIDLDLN
The assay can be described thus: TGR5/CRE Luciferase Assay (mTGR5). Conditions: for EC50: HEK 293 cells co-transfected with pCMV AC6-TGR5m and pCRE TA-Luciferase, overnight incubation; for mTGR5 % trans: percentage of the 10 μM LCA value, HEK 293 cells transfected with mTGR5. The class given is cell-based. How it is done:
as §1, §2

As usually defined, the EC50 is the concentration giving half of the maximal effect. A low value points to a more potent agent. For `COc1ccccc1COC(=O)C1=C(C)N(C[C@H]2CCCO2)C(=O)C[C@H]1c1ccc(Cl)nc1` (racemic) [Example 148, (2-methoxyphenyl)methyl (4S)-4-(6-chloro-3-pyridyl)-6-methyl-2-oxo-1-[[(2R)-tetrahydrofuran-2-yl]methyl]-3,4-dihydropyridine-5-carboxylate and 2-methoxyphenyl)methyl (4R)-4-(6-chloro-3-pyridyl)-6-methyl-2-oxo-1-[[(2S)-tetrahydrofuran-2-yl]methyl]-3,4-dihydropyridine-5-carboxylate], the half-maximal effective concentration (EC50) at hTGR5 came out at 1 nM. With `COCCN1C(=O)CC(c2ccc(Cl)cc2)C(C(=O)OCc2ccccc2OC(F)(F)F)=C1C` (centres unmarked) [Example 105, (2-trifluoromethoxyphenyl)methyl 4-(4-chlorophenyl)-1-(2-methoxyethyl)-6-methyl-2-oxo-3,4-dihydropyridine-5-carboxylate], on mTGR5, the response was half-maximal at 800 nM (EC50) and the mTGR5 % trans worked out at 63%. Turning to `CC1=C(C(=O)OCc2ccccc2)C(c2ccc(Cl)cc2F)CC(=O)N1` (centres unmarked) [Compound 15, benzyl 4-(4-chloro-2-fluoro-phenyl)-6-methyl-2-oxo-3,4-dihydro-1H-pyridine-5-carboxylate], the midpoint of the response at hTGR5, the EC50, lay at 3900 nM. Regarding `COCCN1C(=O)CC(c2ccc(Cl)cc2)C(C(=O)OCc2ccc(C(F)(F)F)cc2)=C1C` (centres unmarked) [Example 92, [4-(trifluoromethyl)phenyl]methyl 4-(4-chlorophenyl)-1-(2-methoxyethyl)-6-methyl-2-oxo-3,4-dihydropyridine-5-carboxylate], the concentration for a half-maximal effect (EC50) on mTGR5 stood at 300 nM. `COCCN1C(=O)CC(c2ccc(Cl)cc2)C(C(=O)OCCCc2ccccc2)=C1C` (centres unmarked) [Example 111, 3-phenylpropyl 4-(4-chlorophenyl)-1-(2-methoxyethyl)-6-methyl-2-oxo-3,4-dihydropyridine-5-carboxylate]: on hTGR5, the response was half-maximal at 1100 nM (EC50) and the hTGR5 % trans worked out at 55%. Take `CC1=C(C(=O)OCc2ccccc2)C(c2ccc(Br)cc2)CC(=O)N1` (centres unmarked) [Compound 16, benzyl 4-(4-bromophenyl)-6-methyl-2-oxo-3,4-dihydro-1H-pyridine-5-carboxylate]: on mTGR5, a half-maximal response (EC50) required 1700 nM and the mTGR5 % trans amounted to 21%. On to `CCCCN1C(=O)CC(c2ccc(Cl)cc2)C(C(=O)OCc2ccccc2)=C1C` (centres unmarked) [Compound 36, Benzyl 1-butyl-4-(4-chlorophenyl)-6-methyl-2-oxo-3,4-dihydropyridine-5-carboxylate], for which, on hTGR5, a half-maximal effect (EC50) was put at 600 nM and the hTGR5 % trans amounted to 54%. Take `COCCN1C(=O)CC(c2ccc(Cl)cc2)C(C(=O)OCc2cccc(F)c2)=C1C` (centres unmarked) [Example 85, (3-fluorophenyl)methyl 4-(4-chlorophenyl)-1-(2-methoxyethyl)-6-methyl-2-oxo-3,4-dihydropyridine-5-carboxylate]: on mTGR5, the 50% effective concentration (EC50) came out at 700 nM and the mTGR5 % trans is listed as 82%. The like results for `CC1=C(C(=O)OCc2ccccc2)C(c2ccc(Cl)cc2)CC(=O)N1CCN(C)C` (centres unmarked) [Compound 50, Benzyl 4-(4-chlorophenyl)-1-[2-(dimethylamino)ethyl]-6-methyl-2-oxo-3,4-dihydropyridine-5-carboxylate] were, in that order, 3600 nM and 77%.

In the case of `CN1C=C(C(=O)OCc2ccccc2)C(c2ccc(Cl)cc2)CC1=O` (centres unmarked) [Compound 24, Benzyl 4-(4-chlorophenyl)-1-methyl-2-oxo-3,4-dihydropyridine-5-carboxylate], on mTGR5, the concentration for a half-maximal effect (EC50) was 5800 nM and the mTGR5 % trans turned out to be 34%. The like results for `CCCN1C(=O)CC(c2ccc(Cl)cc2)C(C(=O)OCc2ccccc2)=C1C` (centres unmarked) [Compound 35, Benzyl 4-(4-chlorophenyl)-6-methyl-2-oxo-1-propyl-3,4-dihydropyridine-5-carboxylate] were, in that order, 800 nM and 76%.

At mTGR5, `CCN1C(=O)CC(c2ccc(Cl)cc2)C(C(=O)OCc2ccccc2)=C1C` (centres unmarked) [Compound 34, Benzyl 4-(4-chlorophenyl)-1-ethyl-6-methyl-2-oxo-3,4-dihydropyridine-5-carboxylate] showed an EC50 of 800 nM and a mTGR5 % trans of 70%.

As to `COc1ccccc1COC(=O)C1=C(C)N(C[C@H]2CCCO2)C(=O)C[C@H]1c1ccc(Cl)cc1` (racemic) [Compound 67, (2-methoxyphenyl)methyl (4S)-4-(4-chlorophenyl)-6-methyl-2-oxo-1-[[(2R)-tetrahydrofuran-2-yl]methyl]-3,4-dihydropyridine-5-carboxylate], the EC50 on hTGR5 was 20 nM.

For the molecule `COCCN1C(=O)CC(c2ccc(Cl)cc2)C(C(=O)OCc2cccc(C)c2)=C1C` (centres unmarked) [Example 99, m-tolylmethyl 4-(4-chlorophenyl)-1-(2-methoxyethyl)-6-methyl-2-oxo-3,4-dihydropyridine-5-carboxylate], the EC50 on mTGR5 is 300 nM.

At hTGR5, `COCCN1C(=O)CC(c2ccc(Cl)cc2)C(C(=O)OCc2ccccc2Cl)=C1C` (centres unmarked) [Example 87, (2-chlorophenyl)methyl 4-(4-chlorophenyl)-1-(2-methoxyethyl)-6-methyl-2-oxo-3,4-dihydropyridine-5-carboxylate] returned a concentration giving a half-maximal response (EC50) of 500 nM and a hTGR5 % trans of 67%. Molecule `COCCN1C(=O)CC(c2ccc(Cl)cc2)C(C(=O)OCc2ccccc2OC)=C1C` (centres unmarked) [Compound 64, (2-methoxyphenyl)methyl 4-(4-chlorophenyl)-1-(2-methoxyethyl)-6-methyl-2-oxo-3,4-dihydropyridine-5-carboxylate] displayed an EC50 on hTGR5 of 100 nM. On hTGR5, `COc1ccccc1COC(=O)C1=C(C)N(C[C@@H]2CCCO2)C(=O)C[C@H]1c1ccc(Cl)nc1` (racemic) [Example 159, (2-Methoxyphenyl)methyl-(4S)-4-(6-chloro-3-pyridyl)-6-methyl-2-oxo-1-[[(2S)-tetrahydrofuran-2-yl]methyl]-3,4-dihydropyridine-5-carboxylate and (2-methoxyphenyl)methyl-(4R)-4-(6-chloro-3-pyridyl)-6-methyl-2-oxo-1-[[(2R)-tetrahydrofuran-2-yl]methyl]-3,4-dihydropyridine-5-carboxylate] yielded an EC50 of 37 nM and a hTGR5 % trans of 107%. On to `COCCN1C(=O)CC(c2ccc(Cl)cc2)C(C(=O)OCC2CCCCC2)=C1C` (centres unmarked) [Example 113], for which, on hTGR5, the half-maximal effective concentration (EC50) worked out at 1100 nM and the hTGR5 % trans was determined as 57%. Regarding `COc1ccccc1COC(=O)C1=C(C)N(C[C@H]2CCCO2)C(=O)C[C@H]1c1ccc(Cl)cc1` [Example 167, (2-Methoxyphenyl)methyl-(4S)-4-(4-chlorophenyl)-6-methyl-2-oxo-1-[[(2R)-tetrahydrofuran-2-yl]methyl]-3,4-dihydropyridine-5-carboxylate], on hTGR5, it took 8 nM to reach a half-maximal effect (EC50) and the hTGR5 % trans amounted to 103%. On to `COc1ccc(C2CC(=O)NC(C)=C2C(=O)OCc2ccccc2)cc1` (centres unmarked) [Compound 6, 4-(4-Methoxy-phenyl)-2-methyl-6-oxo-1,4,5,6-tetrahydro-pyridine-3-carboxylic acid benzyl ester], for which the 50% effective concentration (EC50) on hTGR5 turned out to be 12800 nM.

At hTGR5, `CCC1=C(C(=O)OCc2ccccc2)C(c2ccc(Cl)cc2)CC(=O)N1C` (centres unmarked) [Compound 18, Benzyl 4-(4-chlorophenyl)-6-ethyl-1-methyl-2-oxo-3,4-dihydropyridine-5-carboxylate] registered an EC50 of 1400 nM and a hTGR5 % trans of 34%.

For the origin of these results see US9932309B2, “2-oxo-3,4-dihydropyridine-5-carboxylates and their use” (UNIVERSITE DE LILLE 2 DROIT ET SANTE, priority 2014, dated 2018).
